Test results as given in patent US5332531A, “Extracting metal ions with diphosphonic acid, or derivative thereof” (priority 1992, dated 1994).
Structures can show the parent of a compound that is named as a salt. Where two headings read alike, the source gives them in different places.

What was measured:
[1] = Autodecomposition / storage stability at room or ambient temperature; type: physicochemical
[2] = Aqueous solubility of metal ion complexes; type: physicochemical
Experimental: (§1) In addition, compounds were screened for their ability to readily decompose. Thermal degradation of the thermodynamically-unstable complexing agents was performed by heating the complexing agent in 8M HNO3 at 100° C. The thermal degradation of the compounds were followed by analysis via ^1 H, ^13 C and ^31 P NMR (nuclear magnetic resonance) spectroscopy. Furthermore, the water-solubility of metal ion complexes formed with the inventive complexing agents was determined by using macroquantities of neodymium (III), i.e., Nd(III); thorium (IV), i.e., Th(IV), and uranium (VI), i.e., U(VI).
(§2) After synthesis, the thermodynamically-unstable complexing agents of the present invention were tested for thermal stability and susceptibility to oxidation by using ^1 H, ^13 C and ^31 P NMR spectroscopy. Furthermore, the acid dissociation constants, i.e., the pKa values, of the thermodynamically-unstable complexing agents were determined by standard potentiometric titration methods. Finally, the thermodynamically-unstable diphosphonic acid complexing agents of the present invention were analyzed with respect to their ability to complex metal ions and with respect to the aqueous solubility of the resulting metal ion complexes. In addition, the solubility of the uncomplexed thermodynamically-unstable complexing agents was determined by using macro-concentrations of neodymium(III) as a substitute for the trivalent actinides; of thorium(IV), as a substitute for plutonium(IV) and neptunium(IV); of uranyl(VI), as representative for all actinide(VI) ions; of iron(III); and of zirconium. The variables included in this solubility determination were the thermally-unstable complexing agent-to-metal ion ratio, the metal ion concentration, and the pH.

[3] = Acid dissociation constants by potentiometric (pH) titration; type: physicochemical; details: for pK1 / pK2 / pK3 / pK4: ionic strength 2 M (NaNO3)
Experimental: as §2
In addition, the thermodynamics of protonation of the thermodynamically-unstable complexing agents of the present invention was investigated by potentiometric (pH) titration.
The acidity constants of the thermodynamically-unstable complexing agents are important in the interpretation of metal ion complexation studies, and also serve as a preliminary indicator of metal ion complex stability and conformation. TABLE III summarizes the acid dissocation constants (pKa) of three substituted diphosphonic acids of the present invention. The acid dissociation constants of oxalic and phosphoric acids are included for comparison.
Metal ion complexation with the thermodynamically-unstable complexing agent was investigated using the solvent extraction distribution ratio method. The medium used in all of the protonation and complexation studies was 2.0M NaNO3 /HNO3. The relatively high ionic strength of this medium was utilized in order to minimize interferences due to activity coefficient changes. Data interpretation in all experiments was accomplished by the application of a generic least-squares program written in BASIC. The program applies a Newton-Raphson type iterative process to the data and minimizes the sum of squares of the residuals. The generic program was adapted to several different forms to fit distribution ratio lowering (Do/D) vs. free ligand concentration measurements, and p (average proton number) data from potentiometric titrations.

[4] = Dissolution of Goethite; details: 0.5M solution, 100 mg Goethite, 80° C., four hours
Source text: One difficulty, is to ensure contact with ions "embedded" in the surface to be decontaminated. This usually requires destruction or dissolution of a surface oxide layer when the surface is metal. […] This oxide of iron is considered one of the more difficult to penetrate.

[5] = Removal of uranium from groundwater, supported liquid membrane-based process; details: 60° to 70° C. overnight, strip solution with uranium
Source text: Aqueous solutions of the thermodynamically-unstable complexing agents of the present invention can be used in commercially available supported liquid membrane-based modules to strip metal ion contaminants from aqueous solution. Other devices using a porous membrane separating means can also be used. In general the aqueous solution containing uranium is in contact with one side of the porous membrane and the aqueous solution of the complexing agent is in contact with the other. A known organic extractant is permeated into the pores of the membrane to carry the metal ions from one side to the other. The aqueous solution of the complexing agent strips metal ions from the organic extractant in the pores, driving the extraction "reaction" toward removal of metal ions from the solution to be decontaminated.
Aqueous solutions of the thermodynamically-unstable complexing agent described in this application are useful as stripping agents in a supported liquid membrane-based process for removal of uranium contaminants from groundwater. In this process, groundwater containing 10^-4 M uranium is acidified to pH of 2 by addition of small amounts of sulfuric acid and passed through porous polypropylene hollow fibers in a supported liquid membrane module. The pores of the membrane are filled with 0.1M bis(2,4,4-trimethylpentyl)phosphinic acid in n-dodecane. […]

[6] = type: physicochemical; details: for resistance to degradation: mild thermal and/or oxidation conditions
Experimental: as §1
As a result, autodecomposition is observed when the thermodynamically-unstable complexing agents of the present invention complex with metal ions such as ruthenium or tungsten.
as §2
More particularly, ^1 H, ^13 C, and ^31 P NMR spectroscopy was used to elucidate and measure the thermal degradation pathways of the thermally-unstable complexing agents of structural formula I, and to evaluate synthesis efforts. For example, ^31 P NMR spectroscopy is especially valuable in identifying the type of phosphorus compound that is synthesized or the type of phosphorous compound produced upon degradation of the thermally-unstable complexing agent. As a result, ^31 P NMR spectroscopy provides a method of showing that a particular diphosphonic acid compound actually was synthesized.

[7] = 1 M ionic strength, included for comparison; cited from earlier work

O=P(O)(O)C(O)(CO)P(=O)(O)O [tetrasodium salt of compound X]
stability ([1]; sodium (tetrasodium) salt form): stable indefinitely at room temperature

C=C(P(=O)(O)O)P(=O)(O)O [VDPA, vinylidenediphosphonic acid]
solubility of metal ion complexes ([2]; acidic media): very soluble
pK1 [3]: 1.41
pK2 [3]: 2.05
pK3 [3]: 5.98
pK4 [3]: 8.58
stability ([1]; free acid form): stable
stability ([1]; sodium (tetrasodium) salt form): stable
Goethite dissolved [4]: 40%
time of destruction by heating [5]: about 5 hours
decomposition ([6]; aqueous hydrogen peroxide, moderately elevated temperatures): decomposes within hours
decomposition ([6]; boiling nitric acid): decomposes within hours
decomposition by metal catalyzed oxidation ([6]; hydrogen peroxide, metal catalyzed): readily decomposed
decomposition after complexing with a metal ion ([6]; salts of vanadium(V)): can be decomposed by salts of vanadium(V) under very mild conditions

O=C(O)C(=O)O [Oxalic Acid, oxalic acid]
pK2 [7]: 3.55

O=C(O)CC(=O)O [malonic acid, reference compound]
Goethite dissolved [4]: 8%

CC(O)(P(=O)(O)O)P(=O)(O)O [HEDPA, 1-hydroxyethane-1,1-diphosphonic acid, reference compound]
aqueous solubility of neodymium (III) complexes ([2]; acid media): only moderate aqueous solubilities
aqueous solubility of thorium (IV) complexes ([2]; acid media): only moderate aqueous solubilities
pK1 [3]: 1.53
pK2 [3]: 2.16
pK3 [3]: 6.18
pK4 [3]: 9.09
resistance to degradation [6]: ability to resist decomposition
resistance to degradation ([6]; listed as compound VIII): resisted degradation under mild thermal and/or oxidation conditions

O=P(O)(O)C(O)(CO)P(=O)(O)O [DHEDPA, 1,2-dihydroxyethane-1,1-diphosphonic acid]
acid strength (in words) ([3]; TABLE III comparison): strongest acid
pK1 [3]: 0.91
pK2 [3]: 1.59
pK3 [3]: 5.82
pK4 [3]: 7.97
products of autodecomposition ([1]; free acid form): water, carbon dioxide and phosphoric acid
conversion on previous attempts to isolate free acid ([1]; free acid form, as taught by prior art patent references): essentially immediate conversion
half-life of autodecomposition ([1]; free acid form, room / ambient temperature): about 15 days
products of autodecomposition ([1]; free acid form, listed as compound X): phosphorous and phosphoric acids
stability ([1]; sodium (tetrasodium) salt form, listed as 1,2-dihydroxyethane-1,1-diphosphonic acid): stable indefinitely
time to total decomposition ([6]; free acid form, boiling 8M HNO3): about 3 hours
decomposition ([6]; free acid form, hydrogen peroxide at about 60° C.): totally decomposes

O=C(O)C(O)(P(=O)(O)O)P(=O)(O)O [compound VII, carboxyhydroxymethanediphosphonic acid]
products of autodecomposition ([1]; free acid form): carbon dioxide, water and phosphoric acid
half-life of autodecomposition (in words) ([1]; free acid form, room temperature): from about two days to about three days
